The values below are quoted from earlier work in US20190008973A1, “INTRALIPID-IODINE FOR IMAGING” (priority 2017, published 2019).

Data set [1] relates to hippocampus. The note with it: cited from earlier work.
In data set [2] the test system is spinal anaesthesia. To be noted: spinal with 40 mg CP 1%; outpatient knee arthroscopy; versus general anaesthesia 142 min, P=0.0047; cited from earlier work.
Data set [3] relates to ischemia/reperfusion injury. The note with it: cited from earlier work.
Data set [4] concerns ischemia-reperfusion (IR) injury. To be noted: sham-operated hearts; cited from earlier work.
For data set [5], the system named is cardiac and regional blood flow. To be noted: propofol 4 mg/kg then 0.6 mg/kg/min; Intralipid 0.25 ml/kg then 0.06 ml/kg/min; cited from earlier work.
The subject of data set [6] is propofol-mediated hypotension. The note with it: cited from earlier work.
Data set [7] concerns oxygen desaturation. The note with it: in vivo; cited from earlier work.
Data set [8] relates to I/R injury in late pregnancy. To be noted: rat, in vivo; cited from earlier work.
The test system of data set [9] is clomipramine toxicity. To be noted: 8 mL/kg 20% Intralipid or 2 mL/kg 8.4% sodium bicarbonate, n=4; cited from earlier work.
Data set [10] has as its system bupivacaine cardiotoxicity. More on the design: AUC of total bupivacaine, mean (standard deviation) / AUC of the lipid-un-entrapped bupivacaine portion: concentration or dose not given beside the values. The note with it: cited from earlier work.
In data set [11] the test system is brachial plexus. To be noted: in vivo; cited from earlier work.
Data set [12] concerns brachial plexus. The note with it: 30 ml, cited from earlier work.
Data set [13] concerns brachial plexus. The note with it: in vivo; cited from earlier work. This is another data set of the same source.
Data set [14] has as its system total spinal anesthesia. To be noted: in vivo; cited from earlier work.
Data set [15] relates to bupivacaine-induced asystole. To be noted: cited from earlier work.
The subject of data set [16] is bupivacaine mortality. The note with it: cited from earlier work.
The conditions of data set [17]: plasma-Intralipid mixture, n=3; cited from earlier work.
Data set [18] concerns spinal anesthesia. To be noted: cited from earlier work.
The subject of data set [19] is total spinal anesthesia. The note with it: in vivo; cited from earlier work. The source holds these as a separate data set.
Data set [20] relates to drug overdose. To be noted: after lipid emulsion; cited from earlier work.
Data set [21] deals with cardiac arrest caused by bupivacaine intoxication. The note with it: epinephrine 10 μg/kg, Intralipid 20% 4 ml/kg, vasopressin 2 IU; cited from earlier work.
The subject of data set [22] is hemodynamic compromise owing to bupivacaine intoxication. To be noted: epinephrine 3 μg/kg or Intralipid 20% 2 ml/kg; cited from earlier work.
Data set [23] relates to brachial plexus. The note with it: 150 μg clonidine or 200 μg epinephrine with 0.25% bupivacaine; cited from earlier work.
Data set [24] has as its system levobupivacaine myocardial toxicity. The note with it: pig, in vivo; cited from earlier work.
For data set [25], the system named is brachial plexus. The note with it: in vivo; cited from earlier work. This is another data set of the same source.
The subject of data set [26] is N43 hypothalamic neuronal cells. The note with it: cited from earlier work.
In data set [27] the test system is postoperative delirium. The note with it: postoperative analgesia; cited from earlier work.
Data set [28] deals with brachial plexus. To be noted: in vivo; cited from earlier work. The source holds these as a separate data set.
In data set [29] the test system is axillary plexus. The note with it: in vivo; cited from earlier work.
Data set [30] deals with spinal cord ischemia and reperfusion. The note with it: intrathecal, cited from earlier work.
The target in data set [31] is T1, ATPase of F1 particles from bovine heart mitochondria (Bos taurus, UniProt P00829+P19483).
T1 construct: F1 particles isolated from bovine heart mitochondria; from tissue; host or cells: bovine heart mitochondria
The note with it: read-out: concentration required for 50% inhibition of ATPase activity; cited from earlier work.

Data set [32] addresses T2, mitochondrial ATPase (Homo sapiens, UniProt P06576+P25705).
T2 construct: mitochondrial ATPase prepared by the chloroform extraction method; from tissue; host or cells: mitochondria
The note with it: reciprocal plots; cited from earlier work.

The test system of data set [33] is cocaine- and cocaethylene-induced cardiac depression. To be noted: 0.25% lipid emulsion or SBE-β-CD; cited from earlier work.

“Also recorded” adds a separate entry of the source. Where two headings read alike, the source gives them in different places.

In the case of `CCCCCC(O)C=CC=CCCCCCCCC(=O)O` (stereo not shown) [13-hydroxyoctadecadienoic acid], in data set [1], the “increase of somatic paired-pulse facilitation” value is recorded as 80%.
Take `CCN(CC)CCOC(=O)c1ccc(N)cc1Cl` [CP 1%, Chloroprocaine]: in data set [2], the “Time to reaching discharge criteria” value is 117 min.
Regarding `COc1cccc(-c2cc(=O)c3ccccc3o2)c1N` [PD98059], in data set [3], the “effect of inhibitor on Intralipid-induced cardioprotection” value was “only partially”. In addition, the “effect of inhibitor on infarct-sparing effect of ILP” value in data set [4] is “only partially”.
Regarding `CC(C)c1cccc(C(C)C)c1O` [Propofol, propofol], the “cardiac and regional hemodynamic changes” value in data set [5] is “increases in heart rate, coronary and carotid blood flows, and decreases in systemic vascular resistance and dP/dt”. In data set [6] (10 mg/kg IV), the “drop in MAP” value is recorded as 55+/−2%. Moreover, the “lowering of MAP” value in [6] (under chlorisondamine and phenylephrine) is 12+/−4%. Further, the “odds ratio for oxygen desaturation” value in data set [7] was 5.22 (95% CI 1.78-15.35).
Regarding `O=[N+]([O-])c1ccc2c(c1)S(=O)(=O)C=C2` [Stattic], the “effect of inhibitor on ITLD-induced cardioprotection” value in data set [8] was “fully abolished”.
For the compound `O=C([O-])O.[Na+]` [bicarbonate, sodium bicarbonate], the “circulation in second phase (severe toxicity)” value in [9] is recorded as “developed pulseless electrical activity”.
Regarding `CCCCN1CCCCC1C(=O)Nc1c(C)cccc1C` (stereo not shown) [bupivacaine], in data set [10] (after Intralipid), the “AUC of the lipid-un-entrapped bupivacaine portion” value is on record as 97.0(14.5) mg·min/L; the “AUC of total bupivacaine, mean (standard deviation)” value is 105.2(13.6) mg·min/L; the “un-entrapped AUC lower than total bupivacaine” value is 8%. Besides, in [10] (after Ringer's acetate), the “AUC of total bupivacaine, mean (standard deviation)” value is 88.1(7.1) mg·min/L. In addition, the patients requiring supplementation in data set [11] is 9 of the 22. Besides, in data set [12], the “duration of motor block” value was 12.94 h, the “duration of sensory block” value was 11.58 h, the “onset of motor block” value is 21.45 ± 4.45 min and the “onset of sensory block” value is 16.85 ± 6.67 min. Besides, the “muscle relaxation judged as excellent” value in data set [13] is listed as 30/49. Also, the “mean duration of action” value in [14] was 1.511 to 3 h. Further, the “concentration of bupivacaine in plasma, mean+/−SE” value in [15] (30% Intralipid) is 212+/−45 micrograms per millilitre. In addition, the “median dose of bupivacaine producing asystole” value in [15] (after saline pretreatment) is recorded as 17.7 milligrams per kilogram. In addition, the “concentration of bupivacaine in plasma, mean+/−SE” value in data set [15] (saline) was 93.3+/−7.6 micrograms per millilitre. Also, in data set [16] (resuscitation with 30% Intralipid), the “dose of bupivacaine required to cause death in 50% of animals” value was 18.5 mg/kg. In [16] (resuscitation with saline), the “dose of bupivacaine required to cause death in 50% of animals” value is 12.5 mg/kg. The “mean lipid:aqueous ratio of concentrations” value in data set [17] is on record as 11.9+/−1.77. The “Duration of procedures it is appropriate for” value in data set [18] (long acting spinal anesthetic) was 2 to 2.5 h. In data set [18] (spinal anesthetic, longer with isobaric forms), the Onset was 5 to 10 min. For the same compound, in [19], the “further time to consciousness” value is 65 min and the “time to spontaneous respiration” value is 120 min.
Take `Cn1c(=O)c2c(ncn2C)n(C)c1=O` [caffeine]: the plasma caffeine level in [20] was over 120 mg/L.
Consider `CNC[C@H](O)c1ccc(O)c(O)c1` [epinephrine], for which the values for the survival in data set [21] and in data set [22] were 71% and 100%, respectively. Further, the duration of block in data set [23] was 728.3 ± 35.8 min.
With `CCCCN1CCCC[C@H]1C(=O)Nc1c(C)cccc1C` [levobupivacaine], in [24], the “haemodynamic effects of IV injection” value was “induced sinus bradycardia and reduced dMAP and LV dP/dtmax”. Further, in data set [25], the “need for rescue analgesics” value is listed as 55%.
`CCCCC/C=C\C/C=C\CCCCCCCC(=O)O` [linoleic acid]: the palmitic acid-induced inflammation entry in data set [26] is on record as “reduces palmitic acid-induced inflammation”.
In the case of `CCOC(=O)C1(c2ccccc2)CCN(C)CC1` [meperidine], in [27], the delirium incidence result is “significantly higher”.
For the compound `CCCN1CCCC[C@H]1C(=O)Nc1c(C)cccc1C` [ropivacaine], in data set [11], the patients requiring supplementation is given as 8 of the 22. Moreover, in [28], the “duration of motor blocks” value is recorded as 12±5 and the “duration of sensorial analgesia” value is 13.4±6. In addition, the “mean time of block offset” value in data set [29] was 13.5 h. In addition, in data set [25], the “need for rescue analgesics” value is 65%. Further, in data set [12] (listed as 0.5% ropivacaine), the “duration of motor block” value is 8.29 h, the “duration of sensory block” value is 9.02 h, the “onset of motor block” value was 22.23 ± 4.05 min and the “onset of sensory block” value was 17.79 ± 5.03 min. Also, in data set [12] (listed as 0.75% ropivacaine), the “duration of motor block” value is 7.89 h, the “duration of sensory block” value is 8.87 h, the “onset of motor block” value was 22.33 ± 5.17 min and the “onset of sensory block” value was 18.48 ± 6.14 min. In addition, the “muscle relaxation judged as excellent” value in data set [13] is reported as 35/49.
Regarding `CCCCNc1ccc(C(=O)OCCN(C)C)cc1` [tetracaine], the results for the neurologically normal animals in [30] (aortic occlusion 25 minutes) and in [30] (aortic occlusion 30 minutes) were 100% and 86%, respectively. Also, the IC50 in data set [31] was 1100 µM. In data set [32], the kind of inhibition result is “non-competitive”.
Regarding “sulfobutylether-β-cyclodextrin [SBE-β-CD]”, the “cardiac depression in Langendorff hearts” value in data set [33] was “mild cardio depressant effect; also recorded: mild cardiodepressant effect”.
